This passage reports mass density and viscosity results from the NIST ThermoML archive (doi:10.1016/j.jct.2006.06.009).

± gives the expanded uncertainty stated by the source.

By mass density is commonly meant mass per unit of volume. What is called viscosity is the resistance of a fluid to flow.

For data set [1] the following is noted: 308.15 K; 101 kPa; Liquid.
Data set [2] can be described thus: xn = mol fraction of the nth substance listed. Conditions: 308.15 K, 101 kPa, Liquid.

Consider `ClC(Cl)C(Cl)Cl` [1,1,2,2-tetrachloroethane], for which, in data set [1], the mass density is 1572.4 ± 2.9 kg/m3 and the viscosity was determined as 1.334 ± 0.033 mPa·s.
As to `ClC(Cl)C(Cl)Cl` [1,1,2,2-tetrachloroethane] + CNC(C)=O, in data set [2] (x2 = 0), the mass density is on record as 1572.4 ± 2.9 kg/m3 and the viscosity turned out to be 1.334 ± 0.033 mPa·s.
Take `ClCC(Cl)Cl` [1,1,2-trichloroethane]: in data set [1], the mass density was determined as 1416.1 ± 3.2 kg/m3 and the viscosity is recorded as 0.903 ± 0.017 mPa·s.
Turning to `ClCC(Cl)Cl` [1,1,2-trichloroethane] + CNC(C)=O, the mass density in data set [2] (x2 = 0) is listed as 1416.1 ± 3.2 kg/m3; in data set [2] (x2 = 0.0706), 1390.4 ± 3 kg/m3; in data set [2] (x2 = 0.2356), 1324.2 ± 2.6 kg/m3; in data set [2] (x2 = 0.3484) it was 1276 ± 2.3 kg/m3; in data set [2] (x2 = 0.452) it was 1229.9 ± 2.1 kg/m3; in data set [2] (x2 = 0.5461), 1186.3 ± 1.9 kg/m3. In addition, the mass density in data set [2] (x2 = 0.643) is 1139.1 ± 1.7 kg/m3; in data set [2] (x2 = 0.7345), 1092.7 ± 1.6 kg/m3; in data set [2] (x2 = 0.8235), 1045.8 ± 1.4 kg/m3; in data set [2] (x2 = 0.9497), 975.3 ± 1.3 kg/m3. Further, the viscosity in data set [2] (x2 = 0) is given as 0.903 ± 0.017 mPa·s; in data set [2] (x2 = 0.0706), 1.003 ± 0.018 mPa·s; in data set [2] (x2 = 0.2356), 1.365 ± 0.022 mPa·s; in data set [2] (x2 = 0.3484), 1.771 ± 0.026 mPa·s; in data set [2] (x2 = 0.452), 2.18 ± 0.03 mPa·s; in data set [2] (x2 = 0.5461) it was 2.537 ± 0.034 mPa·s. Further, the viscosity in data set [2] (x2 = 0.643) is 2.88 ± 0.038 mPa·s; in data set [2] (x2 = 0.7345), 3.105 ± 0.04 mPa·s; in data set [2] (x2 = 0.8235), 3.249 ± 0.041 mPa·s; in data set [2] (x2 = 0.9497), 3.345 ± 0.041 mPa·s.
As to `ClCCCl` [1,2-dichloroethane], in data set [1], the mass density is given as 1230.8 ± 1.7 kg/m3 and the viscosity is given as 0.646 ± 0.013 mPa·s.
As for `ClCCCl` [1,2-dichloroethane] + CNC(C)=O, in data set [2] (x2 = 0), the mass density was 1230.8 ± 1.7 kg/m3 and the viscosity is 0.646 ± 0.013 mPa·s.
Take `CNC(C)=O` [N-methylacetamide]: in data set [1], the mass density came out at 945.9 ± 1.2 kg/m3 and the viscosity was determined as 3.312 ± 0.04 mPa·s.
For the molecule `CNC(C)=O` [N-methylacetamide] + ClC(Cl)=C(Cl)Cl, the mass density is listed as 1573.5 ± 2.3 kg/m3 in data set [2] (x1 = 0.0571); 1463.9 ± 2.1 kg/m3 in data set [2] (x1 = 0.2569); 1396.5 ± 2 kg/m3 in data set [2] (x1 = 0.3691); 1330.8 ± 1.8 kg/m3 in data set [2] (x1 = 0.4749); 1268.3 ± 1.7 kg/m3 in data set [2] (x1 = 0.5719); 1206.2 ± 1.6 kg/m3 in data set [2] (x1 = 0.6637). The mass density in data set [2] (x1 = 0.7039) stood at 1178 ± 1.6 kg/m3; in data set [2] (x1 = 0.8385) it was 1078.2 ± 1.4 kg/m3; in data set [2] (x1 = 0.9666), 974.6 ± 1.2 kg/m3; in data set [2] (x1 = 1), 945.9 ± 1.2 kg/m3. Moreover, the viscosity was 0.801 ± 0.014 mPa·s in data set [2] (x1 = 0.0571); 1.541 ± 0.021 mPa·s in data set [2] (x1 = 0.2569); 1.895 ± 0.024 mPa·s in data set [2] (x1 = 0.3691); 2.195 ± 0.027 mPa·s in data set [2] (x1 = 0.4749); 2.411 ± 0.03 mPa·s in data set [2] (x1 = 0.5719); 2.61 ± 0.032 mPa·s in data set [2] (x1 = 0.6637). Further, the viscosity was determined as 2.696 ± 0.033 mPa·s in data set [2] (x1 = 0.7039), 2.981 ± 0.037 mPa·s in data set [2] (x1 = 0.8385), 3.245 ± 0.04 mPa·s in data set [2] (x1 = 0.9666) and 3.312 ± 0.04 mPa·s in data set [2] (x1 = 1).
For `CNC(C)=O` [N-methylacetamide] + ClC(Cl)C(Cl)Cl, the mass density turned out to be 1545.5 ± 2.8 kg/m3 in data set [2] (x1 = 0.0621); 1450.5 ± 2.4 kg/m3 in data set [2] (x1 = 0.2627); 1393 ± 2.2 kg/m3 in data set [2] (x1 = 0.3728); 1331.6 ± 2 kg/m3 in data set [2] (x1 = 0.4796); 1268.9 ± 1.9 kg/m3 in data set [2] (x1 = 0.5797); 1206.5 ± 1.7 kg/m3 in data set [2] (x1 = 0.6722). Moreover, the mass density is recorded as 1143.7 ± 1.6 kg/m3 in data set [2] (x1 = 0.7594), 1080.7 ± 1.5 kg/m3 in data set [2] (x1 = 0.8413), 974.8 ± 1.2 kg/m3 in data set [2] (x1 = 0.9679) and 945.9 ± 1.2 kg/m3 in data set [2] (x1 = 1). For the same molecule, the viscosity in data set [2] (x1 = 0.0621) is listed as 1.499 ± 0.037 mPa·s; in data set [2] (x1 = 0.2627), 2.226 ± 0.053 mPa·s; in data set [2] (x1 = 0.3728) it was 2.726 ± 0.064 mPa·s; in data set [2] (x1 = 0.4796), 3.398 ± 0.078 mPa·s; in data set [2] (x1 = 0.5797), 3.936 ± 0.09 mPa·s; in data set [2] (x1 = 0.6722), 4.291 ± 0.097 mPa·s. The viscosity in data set [2] (x1 = 0.7594) was determined as 4.404 ± 0.099 mPa·s; in data set [2] (x1 = 0.8413), 4.036 ± 0.091 mPa·s; in data set [2] (x1 = 0.9679) it was 3.533 ± 0.08 mPa·s; in data set [2] (x1 = 1), 3.312 ± 0.075 mPa·s.
For `CNC(C)=O` [N-methylacetamide] + ClC=C(Cl)Cl, the mass density was found to be 1417.9 ± 2 kg/m3 in data set [2] (x1 = 0.0514); 1340.4 ± 1.9 kg/m3 in data set [2] (x1 = 0.2353); 1293.3 ± 1.8 kg/m3 in data set [2] (x1 = 0.3404); 1244.6 ± 1.7 kg/m3 in data set [2] (x1 = 0.4437); 1196.4 ± 1.6 kg/m3 in data set [2] (x1 = 0.5419); 1148.5 ± 1.5 kg/m3 in data set [2] (x1 = 0.6357). The mass density in data set [2] (x1 = 0.7288) turned out to be 1099.4 ± 1.4 kg/m3; in data set [2] (x1 = 0.8196), 1049.9 ± 1.4 kg/m3; in data set [2] (x1 = 0.9692), 964.4 ± 1.2 kg/m3; in data set [2] (x1 = 1), 945.9 ± 1.2 kg/m3. Besides, the viscosity in data set [2] (x1 = 0.0514) is recorded as 0.564 ± 0.013 mPa·s; in data set [2] (x1 = 0.2353) it was 1.015 ± 0.016 mPa·s; in data set [2] (x1 = 0.3404), 1.291 ± 0.018 mPa·s; in data set [2] (x1 = 0.4437), 1.578 ± 0.021 mPa·s; in data set [2] (x1 = 0.5419) it was 1.856 ± 0.024 mPa·s; in data set [2] (x1 = 0.6357), 2.15 ± 0.027 mPa·s. Further, the viscosity in data set [2] (x1 = 0.7288) was found to be 2.45 ± 0.03 mPa·s; in data set [2] (x1 = 0.8196), 2.74 ± 0.034 mPa·s; in data set [2] (x1 = 0.9692) it was 3.215 ± 0.039 mPa·s; in data set [2] (x1 = 1), 3.312 ± 0.04 mPa·s.
In the case of `CNC(C)=O` [N-methylacetamide] + ClCC(Cl)Cl, in data set [2] (x1 = 1), the mass density was 945.9 ± 1.2 kg/m3 and the viscosity amounted to 3.312 ± 0.04 mPa·s.
As for `CNC(C)=O` [N-methylacetamide] + ClCCCl, the mass density in data set [2] (x1 = 0.063) was determined as 1213.8 ± 1.6 kg/m3; in data set [2] (x1 = 0.134), 1194.7 ± 1.6 kg/m3; in data set [2] (x1 = 0.2632) it was 1159.1 ± 1.5 kg/m3; in data set [2] (x1 = 0.3875), 1124.3 ± 1.5 kg/m3; in data set [2] (x1 = 0.4442), 1108.2 ± 1.4 kg/m3; in data set [2] (x1 = 0.5064) it was 1090.5 ± 1.4 kg/m3. For the same molecule, the mass density in data set [2] (x1 = 0.6863) is given as 1038.5 ± 1.3 kg/m3; in data set [2] (x1 = 0.807) it was 1003.1 ± 1.3 kg/m3; in data set [2] (x1 = 0.931), 966.5 ± 1.2 kg/m3; in data set [2] (x1 = 1) it was 945.9 ± 1.2 kg/m3. For the same molecule, the viscosity is listed as 0.705 ± 0.014 mPa·s in data set [2] (x1 = 0.063); 0.785 ± 0.014 mPa·s in data set [2] (x1 = 0.134); 1.024 ± 0.016 mPa·s in data set [2] (x1 = 0.2632); 1.342 ± 0.019 mPa·s in data set [2] (x1 = 0.3875); 1.5 ± 0.02 mPa·s in data set [2] (x1 = 0.4442); 1.694 ± 0.022 mPa·s in data set [2] (x1 = 0.5064). In addition, the viscosity amounted to 2.245 ± 0.028 mPa·s in data set [2] (x1 = 0.6863), 2.651 ± 0.033 mPa·s in data set [2] (x1 = 0.807), 3.083 ± 0.038 mPa·s in data set [2] (x1 = 0.931) and 3.312 ± 0.04 mPa·s in data set [2] (x1 = 1).
Turning to `ClC(Cl)=C(Cl)Cl` [tetrachloroethene], in data set [1], the mass density was found to be 1599.2 ± 2.3 kg/m3 and the viscosity turned out to be 0.723 ± 0.014 mPa·s.
With `ClC(Cl)=C(Cl)Cl` [tetrachloroethene] + CNC(C)=O, in data set [2] (x2 = 0), the mass density was 1599.2 ± 2.3 kg/m3 and the viscosity was 0.723 ± 0.014 mPa·s.
Take `ClC=C(Cl)Cl` [trichloroethene]: in data set [1], the mass density is on record as 1438.5 ± 2 kg/m3 and the viscosity is 0.46 ± 0.012 mPa·s.
With `ClC=C(Cl)Cl` [trichloroethene] + CNC(C)=O, in data set [2] (x2 = 0), the mass density stood at 1438.5 ± 2 kg/m3 and the viscosity is 0.46 ± 0.012 mPa·s.
